22 compounds from patent US20240246946A1, “MODULATORS OF TREX1” (Constellation Pharmaceuticals, Inc., priority 2021, published 2024) can be followed below.

The target in test [1] is T1, full length human TREX1 (Homo sapiens, UniProt Q9NSU2).
T1 construct: N-terminally His-Tev tagged full length human TREX1; made in house; host or cells: E. coli
T1 sequence (Q9NSU2 1-314): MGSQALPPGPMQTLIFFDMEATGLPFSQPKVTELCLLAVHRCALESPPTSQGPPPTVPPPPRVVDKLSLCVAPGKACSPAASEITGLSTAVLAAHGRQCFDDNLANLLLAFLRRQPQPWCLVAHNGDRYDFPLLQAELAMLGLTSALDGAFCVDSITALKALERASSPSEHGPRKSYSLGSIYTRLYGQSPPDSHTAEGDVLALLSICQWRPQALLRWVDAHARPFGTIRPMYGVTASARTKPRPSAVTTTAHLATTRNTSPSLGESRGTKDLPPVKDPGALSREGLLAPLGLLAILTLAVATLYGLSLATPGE
Description: hTREX1 Biochemical Assay (fluorescence, dsDNA substrate degradation). The following applies: biochemical, read-out: hTREX1 IC50. In a few lines: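 Fluorescence rises as enzyme degrades a quenched TEX615-labelled dsDNA substrate (60 nM) in 50 mM Tris, 150 mM NaCl, 5 mM MgCl2, pH 7.4. Full-length His-Tev-tagged human TREX1, 4 pM, sits with compound 4 hours at 25° C before substrate; reaction 18 hours, stopped with EDTA.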

Test [2] deals with T2, full length mouse TREX1 (Mus musculus, UniProt Q91XB0).
T2 construct: N-terminally His-Tev tagged full length mouse TREX1; made in house; host or cells: E. coli
T2 sequence (Q91XB0 1-314): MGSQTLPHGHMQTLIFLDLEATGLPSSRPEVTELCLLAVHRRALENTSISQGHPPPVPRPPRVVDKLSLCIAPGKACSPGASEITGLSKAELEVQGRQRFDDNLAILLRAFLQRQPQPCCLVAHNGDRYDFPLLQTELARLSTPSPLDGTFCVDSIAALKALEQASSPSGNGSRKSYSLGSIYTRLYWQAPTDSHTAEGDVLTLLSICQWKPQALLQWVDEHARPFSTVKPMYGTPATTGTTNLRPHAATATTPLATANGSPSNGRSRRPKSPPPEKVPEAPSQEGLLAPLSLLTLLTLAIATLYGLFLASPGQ
Description: mTREX1 Biochemical Assay (fluorescence, dsDNA substrate degradation). As to conditions: biochemical, read-out: mTREX1 IC50. In a few lines:
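Reaction run 18 h at 25° C. with 60 nM TEX615/quencher-labelled dsDNA and 6 pM mouse TREX1 in Tris buffer (pH 7.4, 5 mM MgCl2, 1.0% DMSO), enzyme having sat 4 h with compound across 10 concentrations. EDTA quench; substrate degradation measured as fluorescence increase.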

The target in test [3] is T3, human TREX2 (residues M44-A279) (Homo sapiens, UniProt Q9BQ50).
T3 construct: human TREX2 (residues M44-A279, expressed in E. coli); made in house; host or cells: E. coli
T3 sequence (Q9BQ50 44-279 isoform Q9BQ50-1): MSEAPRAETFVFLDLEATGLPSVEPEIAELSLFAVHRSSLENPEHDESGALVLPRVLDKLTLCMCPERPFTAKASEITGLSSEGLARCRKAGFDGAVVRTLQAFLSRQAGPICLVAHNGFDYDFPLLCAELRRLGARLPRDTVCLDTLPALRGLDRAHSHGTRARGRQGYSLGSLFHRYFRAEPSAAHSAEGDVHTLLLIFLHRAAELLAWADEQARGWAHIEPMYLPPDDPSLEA
Description: hTREX2 Biochemical Assay (fluorescence, dsDNA substrate degradation). As to conditions: biochemical selectivity for hTREX1 vs hTREX2. As for the experimental part: Degradation of the dsDNA liberates free fluorophore to produce a fluorescent signal. Specifically, 7.5 μL of N-terminally His-Tev tagged human TREX2 (residues M44-A279, expressed in E. coli and purified in house) in reaction buffer (50 mM Tris, 150 mM NaCl, 2 mM DTT, 0.1 mg/mL BSA, 0.01% (w/v) Tween-20, 5 mM MgCl2, pH 7.4) was added to a 384-well Black ProxiPlate Plus (PerkinElmer) which already contained compound (150 nL) at varying concentrations as a 10 point dose-response in DMSO. The plate was incubated at 25° C. for 4 hours. Reactions were initiated by adding 7.5 μL of dsDNA substrate (Strand A: 5′ TEX615/GCT AGG CAG 3′; Strand B: 5′ CTG CCT AGC/IAbRQSp (IDT)) in reaction buffer. Final concentrations were 50 pM TREX2, 60 nM dsDNA substrate in reaction buffer with 1.0% DMSO (v/v). After 18 hours at 25° C., reactions were quenched by the addition of 2 μL of 500 mM EDTA. Final concentrations in the quenched reaction mixture were 44 pM TREX2, 53 nM DNA and 59 mM EDTA in a volume of 17 μL. After a 5-minute incubation at room temperature, plates were read in an EnVision plate reader (PerkinElmer) measuring fluorescence at 615 nm following excitation w/570 nm light.

In general, IC50 refers to the concentration at which inhibition is half-maximal.

`Cc1ncc(C(c2cc(F)ccc2C#N)C(C)c2nc(C(=O)Nc3cnoc3)c(O)c(=O)n2C)nc1C` (single isomer, unassigned) [Example 124 D2E1]: the half-inhibitory concentration (IC50) in test [1] and in test [2] was greater than 0.01 µM throughout. For the same compound, in test [3], the “hTREX1 vs hTREX2 selectivity” value is “A (A = <25 fold selective for hTREX1)”.

As to `Cc1ccn(C(c2ccccc2C#N)C(C)c2nc(C(=O)Nc3cnoc3)c(O)c(=O)n2C)n1` (single isomer, unassigned) [Example 132 D1E1], the concentration for half-maximal inhibition (IC50) in test [1] and in test [2] was greater than 0.01 µM each time. Besides, in test [3], the “hTREX1 vs hTREX2 selectivity” value is reported as “A (A = <25 fold selective for hTREX1)”.

In the case of `CC(c1nc(C(=O)Nc2cnoc2)c(O)c(=O)n1C)C(c1cnn(C2COC2)c1)c1ccccc1C#N` (single isomer, unassigned) [Example 106 D1E2], the half-inhibitory concentration (IC50) in test [1] and in test [2] was greater than 0.01 µM throughout. In addition, the “hTREX1 vs hTREX2 selectivity” value in test [3] is on record as “A (A = <25 fold selective for hTREX1)”.

Turning to `CC(c1nc(C(=O)Nc2cnoc2)c(O)c(=O)n1C)C(c1ccccc1Cl)c1nncn1C` (single isomer, unassigned) [Example 152 D1E2], the 50% inhibitory concentration (IC50) in test [1] and in test [2] was greater than 0.01 µM throughout. Further, the “hTREX1 vs hTREX2 selectivity” value in test [3] is “A (A = <25 fold selective for hTREX1)”.

In the case of `Cc1nn(C)cc1C(c1cc(F)ccc1C#N)C(C)c1nc(C(=O)Nc2cnoc2)c(O)c(=O)n1C` (single isomer, unassigned) [Example 57 D2E1], the figures for the IC50 in test [1] and in test [2] were 0.001 to 0.01 µM and greater than 0.01 µM, respectively. In addition, the “hTREX1 vs hTREX2 selectivity” value in test [3] was “C (C = >50 fold selective for hTREX1)”.

Consider `Cc1cnn(C(c2cc(F)ccc2Cl)C(C)c2nc(C(=O)Nc3cnoc3)c(O)c(=O)n2C)c1` (single isomer, unassigned) [Example 144 D1E1], for which the half-inhibitory concentration (IC50) in test [1] and in test [2] was greater than 0.01 µM throughout. Besides, the “hTREX1 vs hTREX2 selectivity” value in test [3] is reported as “A (A = <25 fold selective for hTREX1)”.

`CC(c1nc(C(=O)Nc2cnoc2)c(O)c(=O)n1C)C(c1cnn(C(C)(C)CC#N)c1)c1cc(F)ccc1Cl` (single isomer, unassigned) [Example 100 D1E2]: the values for the half-inhibitory concentration (IC50) in test [1] and in test [2] were 0.001 to 0.01 µM and greater than 0.01 µM, respectively. Further, the “hTREX1 vs hTREX2 selectivity” value in test [3] is “A (A = <25 fold selective for hTREX1)”.

Take `CC(c1nc(C(=O)Nc2cnoc2)c(O)c(=O)n1C)C(c1ccccc1Cl)c1cnn(C)c1C#N` (single isomer, unassigned) [Example 96 D1E2]: the half-inhibitory concentration (IC50) in test [1] and in test [2] was greater than 0.01 µM in each case. Further, the “hTREX1 vs hTREX2 selectivity” value in test [3] is “A (A = <25 fold selective for hTREX1)”.

`CC(c1nc(C(=O)Nc2cnoc2)c(O)c(=O)n1C)C(c1cnc(C(F)(F)F)cn1)c1ccccc1C#N` (single isomer, unassigned) [Example 118 D2E2]: the half-inhibitory concentration (IC50) in test [1] and in test [2] was greater than 0.01 µM throughout. In addition, the “hTREX1 vs hTREX2 selectivity” value in test [3] is reported as “A (A = <25 fold selective for hTREX1)”.

Turning to `Cc1ncc(C(c2ccccc2Cl)C(C)c2nc(C(=O)Nc3cnoc3)c(O)c(=O)n2C)cn1` (single isomer, unassigned) [Example 44 D2E2], the IC50 in test [1] and in test [2] was greater than 0.01 µM each time. Moreover, in test [3], the “hTREX1 vs hTREX2 selectivity” value was “A (A = <25 fold selective for hTREX1)”.

`COCCn1cc(C(c2cc(F)ccc2C#N)C(C)c2nc(C(=O)Nc3cnoc3)c(O)c(=O)n2C)c(C)n1` (single isomer, unassigned) [Example 103 D2E2]: the IC50 in test [1] and in test [2] was greater than 0.01 µM each time. Besides, the “hTREX1 vs hTREX2 selectivity” value in test [3] was “A (A = <25 fold selective for hTREX1)”.

As for `Cc1ccnn1C(c1cc(F)ccc1Cl)C(C)c1nc(C(=O)Nc2cnoc2)c(O)c(=O)n1C` (single isomer, unassigned) [Example 145 D1E2], the IC50 in test [1] and in test [2] was greater than 0.01 µM each time. The “hTREX1 vs hTREX2 selectivity” value in test [3] is “A (A = <25 fold selective for hTREX1)”.

Regarding `CCn1cc(C(c2cc(F)ccc2Cl)C(C)c2nc(C(=O)Nc3cnoc3)c(O)c(=O)n2C)cn1` (single isomer, unassigned) [Example 60 D1E2], the half-inhibitory concentration (IC50) in test [1] was 0.001 to 0.01 µM; in test [2], greater than 0.01 µM. In addition, the “hTREX1 vs hTREX2 selectivity” value in test [3] was “A (A = <25 fold selective for hTREX1)”.

Regarding `CC(c1nc(C(=O)Nc2cnoc2)c(O)c(=O)n1C)C(c1ccccc1C#N)c1nnnn1C` (single isomer, unassigned) [Example 131 D2E1], the IC50 in test [1] and in test [2] was greater than 0.01 µM in each case. The “hTREX1 vs hTREX2 selectivity” value in test [3] is “C (C = >50 fold selective for hTREX1)”.

On to `CCn1cc(C(c2cc(F)ccc2C#N)C(C)c2nc(C(=O)Nc3cnoc3)c(O)c(=O)n2C)cn1` (single isomer, unassigned) [Example 17 D2E1], for which the IC50 in test [1] and in test [2] was greater than 0.01 µM each time. Also, the “hTREX1 vs hTREX2 selectivity” value in test [3] is listed as “B (B = 25 to 50-fold selective for hTREX1)”.

With `CC(c1nc(C(=O)Nc2cnoc2)c(O)c(=O)n1C)C(c1cnn(CC(C)(C)O)c1)c1ccccc1Cl` (single isomer, unassigned) [Example 86 D2E1], the half-maximal inhibitory concentration (IC50) in test [1] and in test [2] was greater than 0.01 µM in each case. For the same compound, the “hTREX1 vs hTREX2 selectivity” value in test [3] was “A (A = <25 fold selective for hTREX1)”.

In the case of `COCCn1ncc(C(c2ccccc2C#N)C(C)c2nc(C(=O)Nc3cnoc3)c(O)c(=O)n2C)c1C` (single isomer, unassigned) [Example 69 D2E2], the half-inhibitory concentration (IC50) is 0.001 to 0.01 µM in test [1] and greater than 0.01 µM in test [2]. In test [3], the “hTREX1 vs hTREX2 selectivity” value is reported as “B (B = 25 to 50-fold selective for hTREX1)”.

Consider `CCn1c(C(C)C(c2cnn(C)c2)c2ccccc2C#N)nc(C(=O)Nc2cnoc2)c(O)c1=O` (single isomer, unassigned) [Example 149 D2E2], for which the concentration for half-maximal inhibition (IC50) in test [1] and in test [2] was greater than 0.01 µM each time. The “hTREX1 vs hTREX2 selectivity” value in test [3] is recorded as “B (B = 25 to 50-fold selective for hTREX1)”.

As for `Cc1ccnn1C(c1ccccc1C#N)C(C)c1nc(C(=O)Nc2cnoc2)c(O)c(=O)n1C` (single isomer, unassigned) [Example 138 D1E2], the IC50 in test [1] and in test [2] was greater than 0.01 µM each time. Further, in test [3], the “hTREX1 vs hTREX2 selectivity” value is “A (A = <25 fold selective for hTREX1)”.

As to `CC(c1nc(C(=O)Nc2cnoc2)c(O)c(=O)n1C)C(c1nnn(C)n1)c1ccccc1C#N` (single isomer, unassigned) [Example 79 D1E1], the half-maximal inhibitory concentration (IC50) in test [1] and in test [2] was greater than 0.01 µM in each case. In addition, the “hTREX1 vs hTREX2 selectivity” value in test [3] is “A (A = <25 fold selective for hTREX1)”.

Turning to `Cc1nnc(C(c2ccccc2Cl)C(C)c2nc(C(=O)Nc3cnoc3)c(O)c(=O)n2C)o1` (single isomer, unassigned) [Example 156 D2E2], the figures for the concentration for half-maximal inhibition (IC50) in test [1] and in test [2] were 0.001 to 0.01 µM and greater than 0.01 µM, respectively. Moreover, the “hTREX1 vs hTREX2 selectivity” value in test [3] is “B (B = 25 to 50-fold selective for hTREX1)”.

Consider `Cc1nn(C)cc1C(c1ccc(F)cc1C#N)C(C)c1nc(C(=O)Nc2cnoc2)c(O)c(=O)n1C` (single isomer, unassigned) [Example 56 D1E1], for which the IC50 in test [1] and in test [2] was less than 0.001 µM each time. In addition, the “hTREX1 vs hTREX2 selectivity” value in test [3] was “C (C = >50 fold selective for hTREX1)”.
